Test results published in PMC5951806, “Rapid labelling and covalent inhibition of intracellular native proteins using ligand-directed N-acyl-N-alkyl sulfonamide” (Nature Communications, 2018).

Assays:
Assay in all cases: TMT LC-MSMS of 11-labelled proteins
Type in all cases: cell-based
[1] = target: T1, Isoform 1 of Voltage-dependent anion-selective channel protein 2 (VDAC2) (Homo sapiens, UniProt P45880)
T1 sequence (P45880 12-294 limits assumed): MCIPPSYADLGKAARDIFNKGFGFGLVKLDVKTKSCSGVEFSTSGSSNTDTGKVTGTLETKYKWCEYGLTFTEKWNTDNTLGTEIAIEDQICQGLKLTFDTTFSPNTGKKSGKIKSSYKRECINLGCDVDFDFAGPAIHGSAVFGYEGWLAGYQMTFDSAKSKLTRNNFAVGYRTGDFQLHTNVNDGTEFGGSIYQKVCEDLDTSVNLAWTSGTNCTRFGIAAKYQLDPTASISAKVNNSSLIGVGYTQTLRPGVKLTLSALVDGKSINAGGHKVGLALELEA

[2] = target: puromycin-sensitive aminopeptidase (NPEPPS) (Homo sapiens, UniProt P55786)
[3] = target: T2, citrate synthase, mitochondrial (CS) (Homo sapiens, UniProt O75390)
T2 sequence (O75390 28-466): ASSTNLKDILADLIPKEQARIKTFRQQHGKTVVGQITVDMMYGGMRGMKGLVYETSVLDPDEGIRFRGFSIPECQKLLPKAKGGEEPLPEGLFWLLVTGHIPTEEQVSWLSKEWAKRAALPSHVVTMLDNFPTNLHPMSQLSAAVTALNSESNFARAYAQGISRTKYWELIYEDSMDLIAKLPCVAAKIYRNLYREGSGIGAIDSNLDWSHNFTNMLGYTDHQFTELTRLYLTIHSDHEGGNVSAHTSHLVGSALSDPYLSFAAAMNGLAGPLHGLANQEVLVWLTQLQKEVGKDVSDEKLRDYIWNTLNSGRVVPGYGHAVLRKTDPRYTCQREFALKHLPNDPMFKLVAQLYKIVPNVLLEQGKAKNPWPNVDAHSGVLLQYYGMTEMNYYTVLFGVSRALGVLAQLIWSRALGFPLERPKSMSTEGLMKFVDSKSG

[4] = sheet Exp1, SKBR3 cells, 11 0.5 µM 3 h vs DMSO
[5] = sheet Exp1, SKBR3 cells, 11 0.5 µM 3 h vs with PU-H71 10 µM
[6] = sheet Merged, SKBR3 cells, 11 0.5 µM 3 h vs DMSO
[7] = sheet Merged, SKBR3 cells, 11 0.5 µM 3 h vs with PU-H71 10 µM

Sequence of puromycin-sensitive aminopeptidase (NPEPPS) (P55786 whole entry): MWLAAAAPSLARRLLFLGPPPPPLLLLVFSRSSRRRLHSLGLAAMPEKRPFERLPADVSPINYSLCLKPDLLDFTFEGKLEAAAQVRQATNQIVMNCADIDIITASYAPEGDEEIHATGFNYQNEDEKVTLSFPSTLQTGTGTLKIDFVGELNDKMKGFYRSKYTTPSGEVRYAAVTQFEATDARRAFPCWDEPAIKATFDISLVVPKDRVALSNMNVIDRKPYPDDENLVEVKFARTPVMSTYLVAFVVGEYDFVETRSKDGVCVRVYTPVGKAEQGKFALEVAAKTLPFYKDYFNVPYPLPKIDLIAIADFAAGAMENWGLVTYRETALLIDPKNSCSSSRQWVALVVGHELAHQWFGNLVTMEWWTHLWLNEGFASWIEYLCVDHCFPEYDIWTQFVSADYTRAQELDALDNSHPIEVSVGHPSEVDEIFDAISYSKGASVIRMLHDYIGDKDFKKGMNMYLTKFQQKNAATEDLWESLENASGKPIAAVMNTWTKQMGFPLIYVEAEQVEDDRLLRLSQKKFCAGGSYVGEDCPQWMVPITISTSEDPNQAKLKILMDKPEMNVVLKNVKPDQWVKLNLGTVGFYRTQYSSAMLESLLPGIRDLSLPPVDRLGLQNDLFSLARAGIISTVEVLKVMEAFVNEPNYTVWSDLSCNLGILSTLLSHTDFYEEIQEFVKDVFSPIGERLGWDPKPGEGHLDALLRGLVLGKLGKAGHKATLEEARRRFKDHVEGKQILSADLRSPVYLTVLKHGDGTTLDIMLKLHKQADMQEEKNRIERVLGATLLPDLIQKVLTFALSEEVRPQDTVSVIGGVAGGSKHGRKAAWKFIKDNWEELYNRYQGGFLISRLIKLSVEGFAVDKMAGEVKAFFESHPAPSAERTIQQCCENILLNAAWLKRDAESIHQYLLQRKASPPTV

Abundance Ratio: (11) / (11 with PU-H71) ([1]; Exp3, VDAC2): 0.617 | Abundance Ratio: (11) / (DMSO) ([1]; Exp3, VDAC2): 3.942 | Abundances (Grouped): 11 ([1]; Exp3, VDAC2): 149 | Abundances (Grouped): 11 with PU-H71 ([1]; Exp3, VDAC2, with PU-H71): 241.6 | Abundance Ratio: (11) / (DMSO) [1, 4]: 2.647 | Abundance Ratio: (11) / (11 with PU-H71) [1, 5]: 0.676 | Abundance Ratio: (11) / (DMSO) [1, 6]: 2.786 | Abundance Ratio: (11) / (11 with PU-H71) [1, 7]: 0.688 | Abundance Ratio: (11) / (11 with PU-H71) ([2]; Exp3, NPEPPS): 0.586 | Abundance Ratio: (11) / (DMSO) ([2]; Exp3, NPEPPS): 3.067 | Abundances (Grouped): 11 ([2]; Exp3, NPEPPS): 616.5 | Abundances (Grouped): 11 with PU-H71 ([2]; Exp3, NPEPPS): 1052.4 | Abundance Ratio: (11) / (DMSO) [2, 4]: 3.569 | Abundance Ratio: (11) / (11 with PU-H71) [2, 5]: 0.575 | Abundance Ratio: (11) / (11 with PU-H71) ([2]; sheet Exp2, NPEPPS): 0.592 | Abundance Ratio: (11) / (DMSO) ([2]; sheet Exp2, NPEPPS): 3.192 | Abundances (Grouped): 11 ([2]; sheet Exp2, NPEPPS): 968.9 | Abundances (Grouped): 11 with PU-H71 ([2]; sheet Exp2, NPEPPS): 1636.1 | Abundance Ratio: (11) / (DMSO) [2, 6]: 3.569 | Abundance Ratio: (11) / (11 with PU-H71) [2, 7]: 0.575 | Abundance Ratio: (11) / (11 with PU-H71) ([3]; sheet Exp2, CS): 0.812 | Abundance Ratio: (11) / (DMSO) ([3]; sheet Exp2, CS): 1.581 | Abundances (Grouped): 11 ([3]; sheet Exp2, CS): 26.4 | Abundances (Grouped): 11 with PU-H71 ([3]; sheet Exp2, CS, with PU-H71): 32.5 | Abundance Ratio: (11) / (DMSO) [3, 6]: 1.555 | Abundance Ratio: (11) / (11 with PU-H71) [3, 7]: 0.796
Structure (SMILES): CC(=O)Oc1ccc2c(c1)Oc1cc(OC(C)=O)ccc1C21OC(=O)c2cc(C(=O)NCCOCCOCCNC(=O)CCCC(=O)N(CC#N)S(=O)(=O)c3ccc(C(=O)NCCCn4c(Sc5cc6c(cc5I)OCO6)nc5c(N)ncnc54)cc3)ccc21 [compound 11]
